Measured values as given in patent US12611380B2, “Solution and method for reducing the virulence of viruses, bacteria, yeasts, or fungus” (priority 2020, dated 2026).
Values after ≈ are worked out from the molar mass of the structure shown. Values joined by “and” are separate entries in the source; they are usually repeats but may differ in a detail not shown here. Identical values can stand only once. Starred links: 1 amine or outer side, 2 acyl side, 3 side chain; linkers in the order of their positions; H or OH if unused. Positions of bridges follow the written chain, without caps; N, C: chain ends. Non-standard residues stand in square brackets, D forms with d. Residues, ends and D or L forms follow the SMILES beside them. *: point of attachment. hTyr(3S-OH,4S-OH,3'-OSO3H) = N[C@H](C(=O)O)[C@H](O)[C@@H](O)c1ccc(O)c(OS(=O)(=O)O)c1; Orn(4R-OH,5R-OH) = O=C([C@H](C[C@@H](O)[C@@H](O)N[*:3])N[*:1])[*:2]; Pro(3S-OH,4S-Me) = C[C@H]1CN[C@H](C(=O)O)[C@H]1O; X1 = CCCCCOc1ccc(-c2cc(-c3ccc(C(=O)*)cc3)no2)cc1; Gln(3R-OH) = NC(=O)C[C@@H](O)[C@H](N)C(=O)O; Hyp = O=C(O)[C@@H]1C[C@@H](O)CN1

Tests used:
[1] = type: physicochemical; details: for Viscosity: 6% of the named additive added to 8% ILCS (potassium) hydro-gel; for reduction in viscosity: 6% additive in ILCS gel, 140° F. 1-3 days then 108° F. 2-4 days
Method: A simple viscometer, Digital Viscosity Meter (NDJ-8S, Shaoxing Worner Lab Equipment Co., Ltd., China) was used, recognizing the limitations of measuring a solid gelatin hydro-gel. […] The ILCS was initially incubated at 120° F. overnight, equilibrated at […]. prior to viscometry.
ILCS was made from potassium hydroxide (Spectrum Chemical, Louisville, KY), isomerized linoleic acid (Stepan, New Jersey), and USP WFI water (Ceela Naturals), to a final concentration 8% or 333 mM Potassium Linoleate (isomerized).
Many of the amino acids tested were purchased from Ajinomoto (NJ, USA), while tryptophan, proline, and phenylalanine were obtained from Purebulk (Oregon, USA). The Quorum Sensing Agent phenylethanol was purchased from Sigma Aldrich (GA, USA).
The gel and compound were incubated at 140° F. for 1-3 days followed by incubation 108° F. for 2-4 days.

Candida auris, (AR-0381) = details: isolate AR Isolate Bank #0381; cited from earlier work
SARS-COV-2 = assay: Virucidal assay, 2 minutes contact, end-point titer (CCID50) on Vero 76 cells; details: Ethanol 63%, 2 minutes
microbial growth = assay: Reduction in microbial growth; type: cell-based; details: potassium hexadiene at pH 9
[2] = tested on: Candida albicans (ATCC 10231); assay: EPA protocol MB-35-00 hard surface carrier disinfection test
Method: (§1) We used EPA protocol MB-35-00 for testing disinfectants against C. auris (US Environmental Protection Agency. 2017, 2020) and C. albicans ATCC 10231, a yeast common in package spoilage of food and cosmetics.
(§2) We tested 5 batches produced with difference sources of isomerized linoleic acid (Test Substances 1-5).
(§3) The EPA test protocol for testing hard surface disinfection of C. auris (AR0381) with antifungal resistance includes an overnight culture of C. auris (AR.0381) shaken at 200 rpm at 30° C. From this culture, 8 mL was harvested by centrifugation, re-suspended in 2-3 mL phosphate-buffered saline (PBS), and mixed with a 3-part soil load including bovine serum albumin (BSA), yeast extract, and mucin. Metal carriers (10 mm) were inoculated (10 μL culture+soil load) and dried in a desiccator under vacuum (˜70 min). The disk surface was coated with the test substance at 0.42 M (50 μL) for up to 10 min. Following incubation, the carriers were transferred to 10 mL neutralization solution (Sabouraud Dextrose Broth [SDB], a common yeast-mold growth media) for subsequent harvesting on membrane filters. The filtered membranes were transferred to Sabouraud Dextrose Emmons Agar (SDEA) plates to culture for 120 hours at 31° C. Controls consisted of PBS (50 μL) applied to inoculated metal disk carriers, subsequently transferred to 10 mL neutralization solution (SDB), diluted serially in PBS, and plated directly to SDEA plates, See FIG. 2.
(§4) We prepared and qualified these per EPA protocol (US Environmental Protection Agency, 2017). • Soil Stocks: We prepared soil stocks with yeast extract powder (Ref RM027) purchased from Himedia, BSA (A2153) purchased from Sigma Life Science, and gastric mucin (cat #HY-B2196/CS-7626) purchased from Mod Chem Express per SOP MB-35-00 (US Environmental Protection Agency, 2017). • Cell Harvesting: We removed cells from the growth culture media using a Micro-Centrifuge obtained from Changzhou Jintan Sanhe Instrument Co., LTD. (Model TGI6-W) at 10,000×g for 10 min in screw-top-cap vials purchased from Heathrow Scientific (Item HS 100600). The optical density of the inoculate was defined at 15-19 OD600 in PBS with the Ultrospec 10 Cell Density Meter from BioChrom (Holliston, MA, USA) prior to dilution in the soil load. Samples were diluted 1:10 in PBS to obtain absorbance readings between 1.5 and 1.9. • Membrane Filtration: Treated yeasts were collected using a combination of the Rocker (Cat #200300-01) and 47 mm PES membranes with a 0.45 micron pore size obtained from Sterlitech (Catalog #PE54547100).

[3] = second experiment, Tables 8 and 9
[4] = second experiment, positive control, Table 5
[5] = all testing runs (Tables 2 and 3)

Method for Candida auris (AR-0381): as §1, §2, §3, §4

Compound: C[C@H](N)C(=O)O [Alanine]
- Viscosity [1]: 40700 milliPoise

Compound: C[C@@H]1[C@H](O)[C@@H](C)/C=C/C=C/C=C/C=C/C=C/C=C/C=C/[C@H](O[C@@H]2O[C@H](C)[C@@H](O)[C@H](N)[C@@H]2O)C[C@@H]2O[C@](O)(C[C@@H](O)C[C@@H](O)[C@H](O)CC[C@@H](O)C[C@@H](O)CC(=O)O[C@H]1C)C[C@H](O)[C@H]2C(=O)O [Amphotericin 81]
- MIC (Candida auris, (AR-0381)): 0.38 µg/mL (≈ 0.411 µM)

Compound: N=C(N)NCCC[C@H](N)C(=O)O [Arginine]
- Viscosity [1]: 25600 milliPoise

Compound: N[C@@H](CC(=O)O)C(=O)O [Aspartic acid]
- Viscosity [1]: 25100 milliPoise

Compound: CC[C@H](C)C[C@H](C)CCCCCCCCC(=O)N[C@H]1C[C@@H](O)[C@@H](NCCN)NC(=O)[C@@H]2[C@@H](O)CCN2C(=O)[C@H]([C@H](O)CCN)NC(=O)[C@H]([C@H](O)[C@@H](O)c2ccc(O)cc2)NC(=O)[C@@H]2C[C@@H](O)CN2C(=O)[C@H]([C@@H](C)O)NC1=O [Caspofungin]
- MIC (Candida auris, (AR-0381)): 0.13 µg/mL (≈ 0.119 µM)

Compound: Cl.N[C@@H](CS)C(=O)O [Cysteine-HCl]
- Viscosity [1]: 28400 milliPoise

Compound: CC(C)(CO)C(O)C(=O)NCCCO (stereo not drawn) [D L Panthenol]
- Viscosity [1]: 28650 milliPoise

Compound: CC(C)(CO)[C@@H](O)C(=O)NCCCO [D Panthenol]
- Viscosity [1]: 31600 milliPoise

Compound: CCO [Ethanol, reference compound]
- toxicity to cells in titer plates (Vero 76 cells): toxic to cells
- LRV (log reduction value) (SARS-COV-2; Table 7): >1.8
- Virus Titer (SARS-COV-2; Table 7): <1.7 Log10 CCID50of virus per 0.1 mL
- LRV (log reduction value) (SARS-COV-2; positive control, Table 4): >1.8
- Virus Titer (SARS-COV-2; positive control, Table 4): <1.7 Log10 CCID50 of virus per 0.1 mL
- LRV (log reduction value) (SARS-COV-2; [3]): >2.0
- Virus Titer (SARS-COV-2; [3]): <1.7 Log10 CCID50of virus per 0.1 mL
- LRV (log reduction value) (SARS-COV-2; [4]): >2.0
- Virus Titer (SARS-COV-2; [4]): <1.7 Log10 CCID50 of virus per 0.1 mL

Compound: OC(Cn1cncn1)(Cn1cncn1)c1ccc(F)cc1F [Fluconazolc, fluconazole]
- MIC (Candida auris, (AR-0381)): 4.00 µg/mL (≈ 13.1 µM)

Compound: Nc1[nH]c(=O)ncc1F [Flucytosine]
- MIC (Candida auris, (AR-0381)): 2.00 µg/mL (≈ 15.5 µM)

Compound: N[C@@H](Cc1c[nH]cn1)C(=O)O [Histidine base]
- Viscosity [1]: 28050 milliPoise

Compound: CC[C@H](C)[C@H](N)C(=O)O [Iso-Leucine]
- Viscosity [1]: 29900 milliPoise

Compound: CCC(C)n1ncn(-c2ccc(N3CCN(c4ccc(OCC5COC(Cn6cncn6)(c6ccc(Cl)cc6Cl)O5)cc4)CC3)cc2)c1=O (stereo not drawn) [Iuaconazole, itraconazole]
- MIC (Candida auris, (AR-0381)): 0.13 µg/mL (≈ 0.184 µM)

Compound: NCCCC[C@H](N)C(=O)O [Lysine base]
- Viscosity [1]: 26900 milliPoise

Compound: Cl.NCCCC[C@H](N)C(=O)O [Lysine-hcl]
- Viscosity [1]: 30700 milliPoise

Compound: CSCC[C@H](N)C(=O)O [Methionine]
- Viscosity [1]: 32350 milliPoise

Compound: CCCCCOc1ccc(-c2cc(-c3ccc(C(=O)N[C@H]4C[C@@H](O)[C@@H](O)NC(=O)[C@@H]5[C@@H](O)[C@@H](C)CN5C(=O)[C@H]([C@H](O)CC(N)=O)NC(=O)[C@H]([C@H](O)[C@@H](O)c5ccc(O)c(OS(=O)(=O)O)c5)NC(=O)[C@@H]5C[C@@H](O)CN5C(=O)[C@H]([C@@H](C)O)NC4=O)cc3)no2)cc1 [Micafungin] (X1-[Orn(4R-OH,5R-OH)]T[Hyp][hTyr(3S-OH,4S-OH,3'-OSO3H)][Gln(3R-OH)][Pro(3S-OH,4S-Me)]; lactam 1-C)
- MIC (Candida auris, (AR-0381)): 0.13 µg/mL (≈ 0.102 µM)

Compound: NC(=O)c1cccnc1 [Niacinamide]
- Viscosity [1]: 33800 milliPoise

Compound: N[C@@H](Cc1ccccc1)C(=O)O [Phenylalanine]
- reduction in viscosity [1]: two log-reduction in viscosity
- Viscosity [1]: 130 milliPoise

Compound: CC[C@@H]([C@H](C)O)n1ncn(-c2ccc(N3CCN(c4ccc(OC[C@@H]5CO[C@@](Cn6cncn6)(c6ccc(F)cc6F)C5)cc4)CC3)cc2)c1=O [Posaconazolc, posaconazole]
- MIC (Candida auris, (AR-0381)): 0.06 µg/mL (≈ 0.0856 µM)

Compound: C/C=C/C=C/C(=O)[O-].[K+] [Potassium Sorbate, Potassium sorbate]
- reduction in microbial growth (microbial growth): little reduction in microbial growth
- Test Disks Density (log) (Candida auris (AR-0381); Exposure 2 min., yeast recovered from treated carriers): 5.0 log and 4.9 log
- kill rates (Candida auris (AR-0381); [5]): less than one log
- Test Disks Density (log) ([2]; Exposure 1 min., yeast recovered from treated carriers): 4.8 log and 4.9 log
- kill rates [2, 5]: less than one log

Compound: N[C@@H](CO)C(=O)O [Serine]
- Viscosity [1]: 22300 milliPoise

Compound: C[C@@H](O)[C@H](N)C(=O)O [Threonine]
- Viscosity [1]: 30650 milliPoise

Compound: N[C@@H](Cc1c[nH]c2ccccc12)C(=O)O [Tryptophan]
- reduction in viscosity [1]: two log-reduction in viscosity
- Viscosity [1]: 21 milliPoise

Compound: CC(C)[C@H](N)C(=O)O [Valine]
- Viscosity [1]: 31850 milliPoise

Compound: C[C@@H](c1ncncc1F)[C@](O)(Cn1cncn1)c1ccc(F)cc1F [Voriconazole]
- MIC (Candida auris, (AR-0381)): 0.03 µg/mL (≈ 0.0859 µM)

Compound: Anidulaftrngin
- MIC (Candida auris, (AR-0381)): 0.25 µg/mL
